According to ChEMBL document CHEMBL4043199, “Synthesis and optimization of 4,5,6,7-tetrahydrooxazolo[4,5-c]pyridines as potent and orally-active metabotropic glutamate receptor 5 negative allosteric modulators” (Bioorg Med Chem Lett, 2017):
In brackets after ≈: the same amount, converted by molar mass.

Key:
[1] = Metabolic stability in rat hepatic microsomes assessed as parent compound remaining at 1 uM after 30 mins in presence of NADPH by LC-MS/MS analysis relative to control; type: ADME, Microsome; conditions: liver microsomes, read-out: Stability
[2] = Metabolic stability in human hepatic microsomes assessed as parent compound remaining at 1 uM after 30 mins in presence of NADPH by LC-MS/MS analysis relative to control; type: ADME, Microsome; conditions: liver microsomes, read-out: Stability
[3] = biological target: Metabotropic glutamate receptor 5 (Homo sapiens, UniProt P41594); experiment: Negative allosteric modulation of human recombinant mGluR5 expressed in HEK293 cells assessed as inhibition of glutamate-induced calcium mobilization preincubated for 2 mins followed glutamate addition measured by fluorescence assay; type: functional, cell-based
[4] = system: Rattus norvegicus; experiment: Oral bioavailability in rat at 10 mg/kg; type: ADME, organism-based; conditions: in vivo
[5] = system: Rattus norvegicus; experiment: Ex vivo receptor occupancy at mGluR5 in Sprague-Dawley rat brain po administered daily for 4 days in presence of [3H]-MPEPy by liquid scintillation counting method; type: functional, organism-based
[6] = Oral bioavailability in monkey at 10 mg/kg; type: ADME, organism-based, Macaca mulatta; conditions: rhesus monkey, in vivo
[7] = […] of CYP450 in human liver microsomes as substrate after 10 mins by LC-MS/MS analysis; type: ADME
[8] = biological target: T1, Cytochrome P450 2C8 (Homo sapiens, UniProt P10632); experiment: Inhibition of CYP2C8 in human liver microsomes using amodiaquine as substrate after 10 mins by LC-MS/MS analysis; type: ADME
T1 sequence (P10632 whole entry): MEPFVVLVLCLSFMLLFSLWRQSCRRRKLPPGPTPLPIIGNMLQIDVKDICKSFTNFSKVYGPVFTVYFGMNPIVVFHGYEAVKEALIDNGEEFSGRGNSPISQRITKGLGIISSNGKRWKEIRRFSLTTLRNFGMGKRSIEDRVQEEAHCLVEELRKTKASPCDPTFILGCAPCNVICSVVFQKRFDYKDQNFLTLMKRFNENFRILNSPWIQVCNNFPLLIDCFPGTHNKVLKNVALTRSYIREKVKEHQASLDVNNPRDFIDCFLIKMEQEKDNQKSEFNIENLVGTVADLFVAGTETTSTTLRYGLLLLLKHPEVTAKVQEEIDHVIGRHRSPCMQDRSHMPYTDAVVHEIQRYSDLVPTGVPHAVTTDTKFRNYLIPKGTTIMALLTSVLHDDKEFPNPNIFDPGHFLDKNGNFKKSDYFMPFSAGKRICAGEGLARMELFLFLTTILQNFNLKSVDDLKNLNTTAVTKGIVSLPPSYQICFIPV

[9] = Permeability of the compound at pH 7.4 by PAMPA; type: physicochemical; conditions: read-out: permeability
[10] = biological target: Cytochrome P450 3A4 (Homo sapiens, UniProt P08684); experiment: Inhibition of CYP3A4 in human liver microsomes using midazolam as substrate after 10 mins by LC-MS/MS analysis; type: ADME
[11] = AUC in rat at 1 mg/kg, iv; type: ADME, organism-based; conditions: in vivo
[12] = Clearance in rat at 1 mg/kg, iv after 24 hrs; type: ADME, organism-based; conditions: in vivo
[13] = AUC in monkey at 10 mg/kg, po; type: ADME, organism-based, Macaca mulatta; conditions: rhesus monkey, in vivo
[14] = biological target: Cytochrome P450 2C19 (Homo sapiens, UniProt P33261); experiment: Inhibition of CYP2C19 in human liver microsomes using (S)-mephenytoin as substrate after 10 mins by LC-MS/MS analysis; type: ADME
[15] = biological target: T2, Cytochrome P450 2A6 (Homo sapiens, UniProt P11509); experiment: Inhibition of CYP2A6 in human liver microsomes using coumarin as substrate after 10 mins by LC-MS/MS analysis; type: ADME
T2 sequence (P11509 whole entry): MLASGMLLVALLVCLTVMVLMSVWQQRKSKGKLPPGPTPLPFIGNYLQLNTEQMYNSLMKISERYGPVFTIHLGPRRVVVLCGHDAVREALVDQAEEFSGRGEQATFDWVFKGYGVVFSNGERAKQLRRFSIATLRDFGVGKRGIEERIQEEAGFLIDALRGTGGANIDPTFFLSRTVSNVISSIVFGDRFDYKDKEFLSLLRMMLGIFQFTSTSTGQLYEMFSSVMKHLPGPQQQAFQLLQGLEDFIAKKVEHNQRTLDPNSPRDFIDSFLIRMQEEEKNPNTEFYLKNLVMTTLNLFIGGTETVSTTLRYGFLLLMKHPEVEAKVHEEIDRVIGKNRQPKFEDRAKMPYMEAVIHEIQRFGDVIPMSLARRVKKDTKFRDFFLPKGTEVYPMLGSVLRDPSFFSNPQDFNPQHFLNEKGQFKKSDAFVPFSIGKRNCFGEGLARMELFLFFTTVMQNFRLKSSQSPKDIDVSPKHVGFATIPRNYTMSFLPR

[16] = AUC in rat at 10 mg/kg, po; type: ADME, organism-based; conditions: in vivo
[17] = system: Rattus norvegicus; experiment: Toxicity in rat at 100 mg/kg, po qd administered via gavage for 14 days; type: organism-based; conditions: in vivo, 336 h
[18] = Volume of distribution at steady state in monkey at 0.5 mg/kg, iv after 24 hrs; type: ADME, organism-based, Macaca mulatta; conditions: rhesus monkey, in vivo, read-out: Vdss
[19] = Volume of distribution at steady state in rat at 1 mg/kg, iv after 24 hrs; type: ADME, organism-based; conditions: in vivo, read-out: Vdss
[20] = AUC in monkey at 0.5 mg/kg, iv; type: ADME, organism-based, Macaca mulatta; conditions: rhesus monkey, in vivo
[21] = Cmax in monkey at 10 mg/kg, po; type: ADME, organism-based, Macaca mulatta; parameters: dose 10 mg/kg, route oral; conditions: rhesus monkey, in vivo
[22] = system: Salmonella typhimurium; experiment: Genotoxicity in Salmonella typhimurium by Ames test; type: toxicity; conditions: salmonella enterica subsp. enterica serovar typhimurium
[23] = Clearance in monkey at 0.5 mg/kg, iv after 24 hrs; type: ADME, organism-based, Macaca mulatta; conditions: rhesus monkey, in vivo
[24] = biological target: Cytochrome P450 2D6 (Homo sapiens, UniProt P10635); experiment: Inhibition of CYP2D6 in human liver microsomes using bufuralol as substrate after 10 mins by LC-MS/MS analysis; type: ADME
[25] = biological target: Cytochrome P450 2C9 (Homo sapiens, UniProt P11712); experiment: Inhibition of CYP2C9 in human liver microsomes using diclofenac as substrate after 10 mins by LC-MS/MS analysis; type: ADME
[26] = Half life in rat at 1 mg/kg, iv; type: ADME, organism-based; conditions: in vivo
[27] = biological target: T3, Cytochrome P450 1A2 (Homo sapiens, UniProt P05177); experiment: Inhibition of CYP1A2 in human liver microsomes using phenacetin as substrate after 10 mins by LC-MS/MS analysis; type: ADME
T3 sequence (P05177 whole entry): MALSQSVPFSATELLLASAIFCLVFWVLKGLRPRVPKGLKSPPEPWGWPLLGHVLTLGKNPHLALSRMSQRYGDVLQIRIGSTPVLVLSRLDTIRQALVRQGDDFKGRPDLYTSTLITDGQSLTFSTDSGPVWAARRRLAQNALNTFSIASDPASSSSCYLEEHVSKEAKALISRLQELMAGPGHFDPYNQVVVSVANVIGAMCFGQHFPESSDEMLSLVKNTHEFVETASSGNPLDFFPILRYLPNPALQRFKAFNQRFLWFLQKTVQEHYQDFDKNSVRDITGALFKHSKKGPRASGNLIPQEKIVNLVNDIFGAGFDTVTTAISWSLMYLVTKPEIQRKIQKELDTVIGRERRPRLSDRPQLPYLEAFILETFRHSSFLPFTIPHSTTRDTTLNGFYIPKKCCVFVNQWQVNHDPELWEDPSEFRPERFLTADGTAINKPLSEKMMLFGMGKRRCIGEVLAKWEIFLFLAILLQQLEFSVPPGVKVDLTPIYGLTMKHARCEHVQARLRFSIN

[28] = Cmax in rat at 10 mg/kg, po; type: ADME, organism-based; parameters: dose 10 mg/kg, route oral; conditions: in vivo
[29] = Half life in monkey at 0.5 mg/kg, iv; type: ADME, organism-based, Macaca mulatta; conditions: rhesus monkey, in vivo
[30] = Aqueous solubility of compound at pH 7.4; type: physicochemical; conditions: aqueous medium

Metabotropic glutamate receptor 5, sequence (P41594 whole entry): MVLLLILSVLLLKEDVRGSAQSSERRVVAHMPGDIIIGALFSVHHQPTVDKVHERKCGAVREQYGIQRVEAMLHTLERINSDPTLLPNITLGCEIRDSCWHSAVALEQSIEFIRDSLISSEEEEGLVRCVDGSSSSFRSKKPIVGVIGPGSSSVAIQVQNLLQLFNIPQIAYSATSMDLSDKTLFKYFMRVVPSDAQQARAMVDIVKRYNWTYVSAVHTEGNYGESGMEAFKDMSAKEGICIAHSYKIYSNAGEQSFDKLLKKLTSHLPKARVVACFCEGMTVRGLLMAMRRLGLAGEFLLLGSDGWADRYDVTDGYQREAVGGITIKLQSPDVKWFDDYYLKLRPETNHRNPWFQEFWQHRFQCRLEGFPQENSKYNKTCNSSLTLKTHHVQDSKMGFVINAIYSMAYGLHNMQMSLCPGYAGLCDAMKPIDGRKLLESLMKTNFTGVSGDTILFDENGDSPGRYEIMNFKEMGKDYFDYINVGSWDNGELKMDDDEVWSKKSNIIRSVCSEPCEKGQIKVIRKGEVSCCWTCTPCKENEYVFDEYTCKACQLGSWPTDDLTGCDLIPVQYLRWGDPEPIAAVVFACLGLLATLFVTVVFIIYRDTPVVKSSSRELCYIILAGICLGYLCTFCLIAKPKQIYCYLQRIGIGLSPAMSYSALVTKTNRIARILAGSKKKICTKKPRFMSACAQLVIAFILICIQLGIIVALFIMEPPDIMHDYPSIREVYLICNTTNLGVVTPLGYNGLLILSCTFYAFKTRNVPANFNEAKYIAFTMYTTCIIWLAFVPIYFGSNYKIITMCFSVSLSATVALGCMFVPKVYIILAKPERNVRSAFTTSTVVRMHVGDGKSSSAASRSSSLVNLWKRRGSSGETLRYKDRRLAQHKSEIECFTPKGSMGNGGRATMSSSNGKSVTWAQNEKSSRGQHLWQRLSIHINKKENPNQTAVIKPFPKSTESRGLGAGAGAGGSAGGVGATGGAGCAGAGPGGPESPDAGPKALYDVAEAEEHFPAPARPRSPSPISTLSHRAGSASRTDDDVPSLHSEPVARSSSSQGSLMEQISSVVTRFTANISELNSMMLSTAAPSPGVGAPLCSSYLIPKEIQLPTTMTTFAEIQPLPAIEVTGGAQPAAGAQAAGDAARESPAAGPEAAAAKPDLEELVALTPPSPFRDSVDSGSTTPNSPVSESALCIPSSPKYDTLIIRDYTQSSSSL
Cytochrome P450 2D6, sequence (P10635 whole entry): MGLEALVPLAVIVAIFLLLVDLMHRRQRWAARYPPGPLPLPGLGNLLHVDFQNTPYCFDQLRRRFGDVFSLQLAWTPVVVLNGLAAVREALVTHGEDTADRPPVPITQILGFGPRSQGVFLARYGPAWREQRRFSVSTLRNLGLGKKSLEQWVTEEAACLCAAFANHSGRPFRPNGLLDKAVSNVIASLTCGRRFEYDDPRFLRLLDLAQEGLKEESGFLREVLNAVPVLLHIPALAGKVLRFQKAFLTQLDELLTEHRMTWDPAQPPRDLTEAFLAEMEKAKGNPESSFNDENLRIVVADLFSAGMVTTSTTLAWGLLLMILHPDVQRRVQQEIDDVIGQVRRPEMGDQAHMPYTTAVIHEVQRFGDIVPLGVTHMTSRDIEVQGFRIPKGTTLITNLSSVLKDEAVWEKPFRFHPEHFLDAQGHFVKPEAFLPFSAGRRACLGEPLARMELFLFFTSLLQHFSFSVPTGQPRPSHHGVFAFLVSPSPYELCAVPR
Cytochrome P450 2C19, sequence (P33261 whole entry): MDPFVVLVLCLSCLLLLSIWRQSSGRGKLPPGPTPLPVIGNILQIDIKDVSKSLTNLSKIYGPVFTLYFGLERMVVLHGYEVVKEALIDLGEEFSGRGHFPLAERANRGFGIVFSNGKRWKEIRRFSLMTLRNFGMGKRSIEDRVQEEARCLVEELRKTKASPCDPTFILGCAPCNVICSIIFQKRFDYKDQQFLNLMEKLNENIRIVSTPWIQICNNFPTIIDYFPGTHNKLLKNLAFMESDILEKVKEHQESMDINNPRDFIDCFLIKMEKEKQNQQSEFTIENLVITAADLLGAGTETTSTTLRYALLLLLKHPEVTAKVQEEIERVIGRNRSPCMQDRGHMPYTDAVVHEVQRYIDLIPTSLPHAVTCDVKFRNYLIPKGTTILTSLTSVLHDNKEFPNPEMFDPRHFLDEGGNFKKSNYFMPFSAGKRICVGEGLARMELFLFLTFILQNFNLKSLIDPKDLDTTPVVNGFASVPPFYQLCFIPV
Cytochrome P450 3A4, sequence (P08684 whole entry): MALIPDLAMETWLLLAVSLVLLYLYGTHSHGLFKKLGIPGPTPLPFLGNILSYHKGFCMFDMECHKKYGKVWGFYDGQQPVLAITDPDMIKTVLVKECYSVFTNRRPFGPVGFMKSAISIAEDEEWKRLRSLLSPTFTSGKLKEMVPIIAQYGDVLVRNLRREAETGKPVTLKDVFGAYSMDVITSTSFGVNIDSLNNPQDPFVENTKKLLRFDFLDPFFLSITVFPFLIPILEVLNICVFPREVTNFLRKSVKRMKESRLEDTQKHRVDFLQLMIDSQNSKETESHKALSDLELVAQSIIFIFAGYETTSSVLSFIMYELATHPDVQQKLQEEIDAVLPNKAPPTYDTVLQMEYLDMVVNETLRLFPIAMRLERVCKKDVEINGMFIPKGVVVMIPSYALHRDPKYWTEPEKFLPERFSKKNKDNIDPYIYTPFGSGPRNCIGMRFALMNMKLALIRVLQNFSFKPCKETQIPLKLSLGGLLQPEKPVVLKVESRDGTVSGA
Cytochrome P450 2C9, sequence (P11712 whole entry): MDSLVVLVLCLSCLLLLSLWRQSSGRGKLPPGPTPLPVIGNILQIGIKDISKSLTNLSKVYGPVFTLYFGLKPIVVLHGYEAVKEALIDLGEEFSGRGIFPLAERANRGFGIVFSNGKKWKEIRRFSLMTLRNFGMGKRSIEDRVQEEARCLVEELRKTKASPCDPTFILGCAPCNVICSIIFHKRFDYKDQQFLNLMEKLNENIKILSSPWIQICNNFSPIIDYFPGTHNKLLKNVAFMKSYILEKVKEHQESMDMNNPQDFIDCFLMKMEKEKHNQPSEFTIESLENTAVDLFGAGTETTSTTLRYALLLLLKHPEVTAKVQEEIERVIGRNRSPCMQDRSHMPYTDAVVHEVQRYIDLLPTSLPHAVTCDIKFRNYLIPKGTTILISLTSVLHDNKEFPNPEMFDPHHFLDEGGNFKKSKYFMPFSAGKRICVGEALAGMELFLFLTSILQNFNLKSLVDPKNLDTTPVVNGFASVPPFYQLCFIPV

## Cc1cc(Cl)cc(C(=O)N2CCc3oc(-c4ccc(F)cn4)nc3C2)c1
[1]
  remaining at 0.5 h, 1 µM: > 91%
[2]
  remaining at 0.5 h, 1 µM: > 91%
[3]
  IC50: 46 nM

## O=C(c1ccccc1F)N1CCc2oc(-c3ccc(F)cn3)nc2C1
[1]
  remaining at 0.5 h, 1 µM: > 91%
[2]
  remaining at 0.5 h, 1 µM: > 91%
[3]
  IC50: 58 nM

## COc1cccc(C(=O)N2CCc3oc(-c4ccc(F)cn4)nc3C2)c1
[1]
  remaining at 0.5 h, 1 µM: > 91%
[2]
  remaining at 0.5 h, 1 µM: > 91%
[3]
  IC50: 157 nM

## O=C(c1ccccc1)N1CCc2oc(-c3ccc(Br)cn3)nc2C1
[3]
  IC50: 174 nM

## N#Cc1ccc(-c2nc3c(o2)CCN(C(=O)c2ccccc2)C3)nc1
[3]
  IC50: 237 nM

## O=C(c1cccc(F)c1)N1CCc2oc(-c3ccc(F)cn3)nc2C1
[1]
  remaining at 0.5 h, 1 µM: 91 to 97%
[4]
  F: 168%
[5]
  Activity: Dose-dependent effect
[6]
  bioavailability: 114%
[7]
  Activity: Not Active
[8]
  IC50: > 50000 nM
[9]
  Papp: 31.7 ×10⁻⁶ cm/s
[10]
  IC50: > 50000 nM
[2]
  remaining at 0.5 h, 1 µM: 91 to 97%
[11]
  AUC: 1550 ng·h/mL
[12]
  clearance: 10.8 mL/min/kg
[13]
  AUC: 69200 ng·h/mL
[14]
  IC50: > 50000 nM
[15]
  IC50: > 50000 nM
[16]
  AUC: 26100 ng·h/mL
[17]
  Activity: Non-Toxic
[18]
  Vd: 2.2 L/kg
[19]
  Vd: 1.6 L/kg
[20]
  AUC: 3050 ng·h/mL
[21]
  Cmax: 4060 ng/mL
[22]
  Activity: Non-Toxic
[23]
  clearance: 2.8 mL/min/kg
[24]
  IC50: > 50000 nM
[25]
  IC50: > 50000 nM
[3]
  IC50: 63 nM
[26]
  half-life: 2 h
[27]
  IC50: > 50000 nM
[28]
  Cmax: 2070 ng/mL
[29]
  half-life: 9.5 h
[30]
  solubility: 23 µg/mL (≈ 67.4 µM)

## O=C(c1ccc(F)cc1)N1CCc2oc(-c3ccc(F)cn3)nc2C1
[1]
  remaining at 0.5 h, 1 µM: > 91%
[2]
  remaining at 0.5 h, 1 µM: > 91%
[3]
  IC50: 90 nM
